Where a SMILES comes first, the peptide text is derived from it.

Data set [1] concerns CD4+CD25+ cells, CD4+CD25+FoxP3+ cells, IL-17+ cells. Kind of data set: Flow cytometry (FACS) of cells isolated from treated arthritis mouse model. It counts as in vivo. On the set-up: IL-17: unit not given here. (In general: A flow cytometer gives signals particle by particle.)
Data set [2] has as its system mouse model with collagen-induced arthritis. Kind of data set: Severity of arthritis in mouse model with collagen-induced arthritis. It counts as in vivo. How it is done: To prepare a mouse model with rheumatoid arthritis, subcutaneous injection (first immunization) was performed on the tail of a group of 8-week-old male ICR normal mice (average weight: 20 g) injected with 50 μg of a mixture obtained by mixing type II collagen with Complete Freund's adjuvant (CFA) and paraffin oil in the same amount. Two weeks later, the same substance was subcutaneously injected into the tail in the same manner to prepare an animal model with rheumatoid arthritis.
In the same manner as in Example 2, the mixture of P1, P2 and P4 peptides (P124) prepared in Example 1 was administered to the skin of mice as an external skin preparation.
In addition, the peptide mixture (P124) was treated as an external skin preparation once a day for 10 consecutive days, the arthritis treatment effect was checked after 5 weeks, and the results were shown in FIG. 5.

A short description of data set [3]: Retention of fluorescently labeled peptide in abdominal cavity (FACS of intraperitoneal macrophages). It counts as in vivo, mouse. As to conditions: for stability in vivo: conclusion from FIG. 9 and FIG. 10. The procedure: After intraperitoneal injection of the fluorescently labeled peptide P4 into mice, intraperitoneal macrophages were isolated, and the frequency of fluorescently labeled macrophages was analyzed by FACS to measure the retention time of the peptides in the abdominal cavity, which was shown in FIG. 9.
In addition, the P1, P2, and P4 peptides were labeled with each different fluorescence, and the three types were mixed and administered to normal mice.

For data set [4], the system named is mouse animal model with Behcet's disease (HSV type 1 infected ICR mice). Kind of data set: Therapeutic effect on skin ulcers and skin inflammation in mouse animal model with Behcet's disease. The conditions noted are these: peptides administered respectively; symptoms visually checked; FIG. 1. It counts as in vivo. How it is done: Male ICR mice (4-5 weeks of age) were infected with HSV type 1 (1×10^6, 20 μL) grown in Vero cells as previously reported (S. Sohn et al., Eur J Dermatol, 8 (1): 21-23, 1998). 10 days after the first virus inoculation, the mice were infected twice by inoculating the virus again and monitored for 32 weeks. Animals were treated according to the guidelines provided by Institutional Animal Care and Use Committee (IACUC) of School of Medicine at Ajou University. The study protocol was approved by IACUC (Approval No.: AMC-2016-0010).
Symptoms include skin ulcers, skin pustule, genital ulcers, erythema, mouth ulcers, ear inflammation, arthritis, red eyes (left and right), decreased visual acuity (left and right), weight loss, and facial swelling. Mouth ulcers, genital ulcers, skin ulcers, and eye symptoms were classified as major symptoms while the other symptoms were mild.
Mice showing one or more major symptoms with one mild symptom were considered as BD mice, the score for each symptom was calculated as 1, and the sum of the scores was used to determine the severity of BD. When symptoms disappeared or the size of the lesion was reduced by 20% or more, it was classified as symptom improved state. The disease severity score for BD was calculated based on the BD Activity Index as described in the BD Activity Form (www.behcet.ws/pdf/BehcetsDiseaseActivityForm.pdf). […]

Setting [5] is: FACS frequency, Table 1, in % (unit assumed).
Setting [6] is: intraperitoneal injection, intraperitoneal macrophages, FIG. 9.

The compound `CN(Cc1cnc2nc(N)nc(N)c2n1)c1ccc(C(=O)N[C@@H](CCC(=O)O)C(=O)O)cc1` [Methotrexate] had an IL-17 in data set [1] (FACS frequency, Table 1) of 13.15 ± 1.34. Moreover, in data set [1] (setting [5]), the “CD4 + CD25+” value was 3.7 ± 1.13 and the “CD4 + CD25 + FoxP3+” value came out at 1.45 ± 0.49. The same compound returned an ROR-gammaT in data set [1] (FACS, Table 1) of 6.2 ± 0.42. Also, the “duration of the effect on severity score for arthritis” value in data set [2] (FIG. 4, 10 weeks follow-up) is “effect decreased after 7 weeks”. Moreover, the “severity score for arthritis” value in data set [2] (external skin preparation, compared to PBS control group, followed 10 weeks, FIG. 4) is “reduction in the severity score for arthritis was also shown”.
With `CC[C@H](C)[C@H](NC(=O)[C@@H](N)CC(C)C)C(=O)N[C@@H](CS)C(=O)N1CCC[C@H]1C(=O)N[C@@H](CCC(=O)O)C(=O)N[C@@H](CCCCN)C(=O)N[C@@H](Cc1ccc(O)cc1)C(=O)N[C@@H](CS)C(=O)N[C@@H](CC(N)=O)C(=O)N[C@@H](CCCCN)C(=O)N[C@H](C(=O)N[C@@H](Cc1c[nH]cn1)C(=O)N[C@H](C(=O)O)[C@@H](C)O)C(C)C` [P1, LICPEKYCNKVHT] (H-LICPEKYCNKVHT-OH; N-terminus and C-terminus assumed), the stability in vivo entry in data set [3] is on record as “stably maintained”.
Same read-out and setting: the result for `CC(C)[C@H](NC(=O)[C@H](CCCCN)NC(=O)[C@H](CC(N)=O)NC(=O)[C@H](CS)NC(=O)[C@@H](N)Cc1ccc(O)cc1)C(=O)N[C@@H](Cc1c[nH]cn1)C(=O)N[C@H](C(=O)N[C@@H](CS)C(=O)N[C@@H](CCCNC(=N)N)C(=O)N[C@@H](CC(N)=O)C(=O)NCC(=O)O)[C@@H](C)O` [P2, YCNKVHTCRNG] (H-YCNKVHTCRNG-OH; N-terminus and C-terminus assumed) reads “stably maintained”.
As for `CC[C@H](C)[C@H](NC(=O)[C@H](CC(N)=O)NC(=O)[C@H](CCC(=O)O)NC(=O)CNC(=O)[C@H](CC(N)=O)NC(=O)[C@H](CCCNC(=N)N)NC(=O)[C@H](CS)NC(=O)[C@@H](NC(=O)[C@@H](N)Cc1c[nH]cn1)[C@@H](C)O)C(=O)N[C@@H](CS)C(=O)N[C@@H](Cc1ccccc1)C(=O)O` [P4, HTCRNGENICF] (H-HTCRNGENICF-OH; N-terminus and C-terminus assumed), the stability in vivo result in data set [3] is recorded as “stably maintained”. For the same compound, in data set [3] (setting [6]), the “time at which frequency of cells including the peptide was the highest” value is 24 h and the “time up to which frequency of cells including the peptide was maintained” value is on record as “up to 72 hours”.
As to ENICFKRFYEGNLLGKRYPRGCA [P5], the “skin ulcers and skin inflammation” value in data set [4] is reported as “alleviated”.

The values are drawn from patent US12545706B2, “Pharmaceutical composition for preventing or treating Behcet's disease and rheumatoid arthritis, containing peptide or mixture thereof as active ingredient” (AJOU UNIVERSITY INDUSTRY-ACADEMIC COOPERATION FOUNDATION, priority 2019, dated 2026).
